Laboratory results published in patent publication US20250368651A1 (priority 2022, published 2025).

Key:
DNA S26 d(TGAAGGAAGG) = assay: FP binding assay, 10-nt DNA S26
Procedure: (§1) All synthetic DNA and RNA oligomers were purchased from Integrated DNA Technologies and reconstituted in nuclease-free water (Invitrogen #AM9932) at 1 mM. The concentration of the oligonucleotides at ˜0.1 mM was calibrated with the A260 value measured by a NanoDrop ND-1000 (Thermo, Waltham, MA, USA) and the predicted extinction coefficient (http://www.oligoevaluator.com) using Lamber-Beer's Law. The risdiplam analogues (1 mM in DMSO) were diluted in 2× assay buffer (40 mM HEPES, 200 mM NaCl for RNA; 40 mM HEPES, 200 mM NaCl, 1 mM MgCl2 for DNA) to make a 1 μM 2× working solution.
(§2) A 1:2 dilution series (8 points) of each oligonucleotide was prepared in 20-30 μL water to desired concentrations (i.e., 1-128 μM). […] For fluorescence polarization measurement, 20 μL of the above 1× working solution was transferred into a 384-well, black, F-bottom microplates (Greiner Bio-One) in duplicates or triplicates. The plate was equilibrated at room temperature for 5 min before being read using a microplate reader (SYNERGY H1, BioTek; Excitation/Emission=360/460 nm) at 25° C. […] The mixture was then transferred into a microplate (20 μL each well) in duplicates for fluorescence polarization readout. The experimental data were analyzed using Prism 8 software (Graphpad Software, San Diego, CA, USA).

in vitro = settings: human
[1] = molecular target: DNA Seq7 (UUAAGGAAGGU as deoxyribonucleotides); assay: FP binding assay, DNA Seq7; settings: Seq 7; 0.5 μM SMN-C2
Procedure: as §1, §2

DNA S4 […] = assay: FP binding assay, 18-nt DNA S4
Procedure: as §1, §2

DNA S17 […] = assay: FP binding assay, 18-nt DNA S17
Procedure: as §1, §2

RNA Seq7 UUAAGGAAGGU = assay: FP binding assay, RNA Seq7; settings: Seq 7 UUAAGGAAGGU; 0.5 μM SMN-C2
Procedure: as §1, §2

[2] = molecular target: DNA Seq8 (UGAAGGAAGUU as deoxyribonucleotides); assay: FP binding assay, DNA Seq8; settings: Seq 8; 0.5 μM SMN-C2
Procedure: as §1, §2

[3] = tested on: dsDNA formed by annealing Seq6 and its reverse complement, Seq6_RC; assay: ITC, dsDNA (annealed Seq6 and Seq6_RC); type: binding; settings: dsDNA of Seq6 and Seq6_RC
Procedure: The figures are representation of three independent experiments.
Isothermal calorimetric titrations were carried out on a Malvern Analytical MicroCal PEAQ-ITC at 25° C. The DNA (see above for the calibration procedure) and the SMN-C2 water solutions containing the desired amount of the materials were freeze-dried overnight (Labconco FreeZone 4.5 Liter Benchtop Freeze Dry System) and then re-suspended in appropriate volume of buffer containing 5% DMSO, 100 mM NaCl and 30 mM MES buffer at pH 6.0 (e.g., 350 μL for DNA Seq6, 80 μL for SMN-C2). […] The analysis was performed using the instrument's MicroCal PEAQ-ITC Analysis Software (Malvern Analytical). The ITC data was fit using the One Set of Sites mode to calculate the dissociate constant (Kd), binding stoichiometry, and the changes in enthalpy and Gibbs free energy. In differential power (DP) trace, the baseline was subtracted for better visualization, which has no impact on calculations.

DNA S25 […] = assay: FP binding assay, 18-nt DNA S25
Procedure: as §1, §2

RNA Seq8 UGAAGGAAGUU = assay: FP binding assay, RNA Seq8; settings: Seq 8 UGAAGGAAGUU; 0.5 μM SMN-C2
Procedure: as §1, §2

DNA Seq14 AGAAGGTAGGT = assay: FP binding assay, DNA Seq14; settings: Seq 14 AGAAGGTAGGT; 0.5 μM SMN-C2
Procedure: as §1, §2

DNA S18 […] = assay: FP binding assay, 18-nt DNA S18
Procedure: as §1, §2

RNA Seq13 UGAAGAAAGGU = assay: FP binding assay, RNA Seq13; settings: Seq 13 UGAAGAAAGGU; 0.5 μM SMN-C2
Procedure: as §1, §2

DNA S12 […] = assay: FP binding assay, 18-nt DNA S12
Procedure: as §1, §2

[4] = molecular target: RNA Seq18: 1:1 annealed U1 snRNA binding sequence 5′-AUACΨΨACCU and 5′ splice site 5′-GGAGGUAAGUCU; assay: FP binding assay, dsRNA Seq18 (binding site 1 sequence); settings: Seq 18, binding site 1 sequence (dsRNA); 0.5 μM SMN-C2
Procedure: as §1, §2

DNA S21 […] = assay: FP binding assay, 18-nt DNA S21
Procedure: as §1, §2

DNA S15 […] = assay: FP binding assay, 18-nt DNA S15
Procedure: as §1, §2

RNA Seq6 UGAAGGAAGGU = assay: Fluorescence polarization (FP) binding assay, RNA Seq6
Procedure: as §1
A 1:2 dilution series (8 points) of each oligonucleotide was prepared in 20-30 μL water to desired concentrations (i.e., 1-128 μM). 20-30 μL 2× working solution containing the 2× assay buffer and the small-molecule ligand was added to each oligonucleotide sample in 1:1 (v/v) and mixed by pipetting for 4 times. For fluorescence polarization measurement, 20 μL of the above 1× working solution was transferred into a 384-well, black, F-bottom microplates (Greiner Bio-One) in duplicates or triplicates. The plate was equilibrated at room temperature for 5 min before being read using a microplate reader (SYNERGY H1, BioTek; Excitation/Emission=360/460 nm) at 25° C. For compound SMN-C5, a competitive binding assay was employed to measure an apparent Kd. SMN-C5 was 1:2 serial diluted for 10 concentration points starting at 750 μM in DMSO. A mixture of SMN-C2 (0.5 μM) and DNA Seq6 (25 μM) in 1× assay buffer was prepared and incubated at room temperature for 10 minutes. 3 μL of SMN-C5 solution at each concentration was added to a 42 μL SMN-C2/DNA Seq6 mixture and incubated at room temperature for 10 minutes. The mixture was then transferred into a microplate (20 μL each well) in duplicates for fluorescence polarization readout. The experimental data were analyzed using Prism 8 software (Graphpad Software, San Diego, CA, USA).

CCN1CCN(c2ccc3cc(-c4cn5cc(C)nc(C)c5n4)c(=O)oc3c2)C[C@@H]1C [SMN-C2, (S)-3-(6,8-dimethylimidazo[1,2-a]pyrazin-2-yl)-7-(4-ethyl-3-methylpiperazin-1-yl)-2H-chromen-2-one]
Kd (DNA S26 d(TGAAGGAAGG)): 6.2 ± 1 µM | CC50 (in vitro): > 30 µM | Kd [1]: > 100 µM | Kd (DNA S4 […]): > 50 µM | Kd (DNA S17 […]): 16.5 ± 1.1 µM | Kd (RNA Seq7 UUAAGGAAGGU): 42.3 ± 13.3 µM | Kd [2]: 14.7 ± 0.7 µM | binding to dsDNA (ITC) [3]: abrogated most of the binding affinity | Kd (DNA S25 […]): 48 ± 7.8 µM | Kd (RNA Seq8 UGAAGGAAGUU): > 100 µM | Kd (DNA Seq14 AGAAGGTAGGT): > 100 µM | Kd (DNA S18 […]): > 50 µM | Kd (RNA Seq13 UGAAGAAAGGU): > 100 µM | Kd (DNA S12 […]): 37.4 ± 6.7 µM | Kd [4]: 60 ± 36 µM | Kd (DNA S21 […]): > 50 µM | Kd (DNA S15 […]): 31.4 ± 4 µM | Kd (RNA Seq6 UGAAGGAAGGU; Seq 6 UGAAGGAAGGU, 0.5 μM SMN-C2, range = 95% CI, read-out: RNA Kd): 17.5 ± 2.2 µM | binding affinity (Kd) to RNA Seq6 relative to RNA Seq18, fold stronger (RNA Seq6 UGAAGGAAGGU; binding site 2 vs binding site 1): 3.4 fold
